Starred links: 1 amine or outer side, 2 acyl side, 3 side chain; linkers in the order of their positions; H or OH if unused. Positions of bridges follow the written chain, without caps; N, C: chain ends. Non-standard residues stand in square brackets, D forms with d. Residues, ends and D or L forms follow the SMILES beside them. Groups on a side chain read outwards from the residue. *: point of attachment. Me3N+(CH2)2O(CH2)2O(CH2)2CO = C[N+](C)(C)CCOCCOCCC(=O)*; Trp(7-Me) = Cc1cccc2c(C[C@H](N)C(=O)O)c[nH]c12; PEG9 = NCCOCCOCCOCCOCCOCCOCCOCCOCCOCCC(=O)O; Phe(4-CH2NH2) = NCc1ccc(C[C@H](N)C(=O)O)cc1; Abu(4-yl) = O=C([C@H](CC[*:3])N[*:1])[*:2]; dLys(Me3) = C[N+](C)(C)CCCC[C@@H](N)C(=O)O; X71 = C[N+](C)(C)CC(F)(F)C(F)(F)C(F)(F)C*; γGlu = O=C(O)[C@H](CCC(=O)[*:2])N[*:1]; 2Nal = N[C@@H](Cc1ccc2ccccc2c1)C(=O)O; AEF = NCCOc1ccc(C[C@H](N)C(=O)O)cc1; NMe3Pal = CN[C@@H](Cc1cccnc1)C(=O)O; dNMeY = CN[C@H](Cc1ccc(O)cc1)C(=O)O; 3Pal = N[C@@H](Cc1cccnc1)C(=O)O; Lys(Me) = CNCCCC[C@H](N)C(=O)O; NMeK = CN[C@@H](CCCCN)C(=O)O; Pen = CC(C)(S)[C@H](N)C(=O)O; αMeK = C[C@](N)(CCCCN)C(=O)O; Lauroyl = CCCCCCCCCCCC(=O)*; αMeC = C[C@](N)(CS)C(=O)O; Thp = NC1(C(=O)O)CCOCC1; X3 = C[N+](C)(C)CCCCC*; AEEA = NCCOCCOCC(=O)O; Sar = CNCC(=O)O
Test system: not listed separately
Test: Exposed Polar Surface Area (EPSA)
Assay type: physicochemical
Settings: SFC on Chirex 3014 column; sample 1 mM DMSO stock; read-out: EPSA
In short: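 Polarity descriptor in Å² derived from retention time using 8 calibration standards re-run every 20 compounds. Duplicate injections of 1 mM DMSO stock; linear 5–60% modifier gradient (20 mM ammonium formate in MeOH) with CO2 at 4 mL/min, 35 °C, on a Chirex 3014 column.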
In the case of CC(=O)NCCCC[C@@H]1NC(=O)[C@H](Cc2c[nH]c3ccccc23)NC(=O)[C@H]([C@@H](C)O)NC(=O)[C@H](CC(N)=O)NC(=O)[C@@H](NC(=O)[C@@H](CCCC[N+](C)(C)C)NC(C)=O)CCSC[C@@](C)(C(=O)N[C@@H](Cc2ccc(OCCN)cc2)C(=O)N[C@@H](Cc2ccc3ccccc3c2)C(=O)NC2(C(=O)N[C@@H](CCCCNC(C)=O)C(=O)N[C@@H](CC(N)=O)C(=O)N[C@@H](Cc3cccnc3)C(=O)N(C)CC(N)=O)CCOCC2)NC1=O [compound 569, MeCO-k(Me)3-Abu(1)-N-T-W-K(Ac)-aMeC(1)-AEF-2Nal-THP-K(Ac)-N-3Pya-Sar-CONH2] (Ac-[dLys(Me3)][Abu(4-yl)]NTWK(Ac)[αMeC][AEF][2Nal][Thp]K(Ac)N[3Pal][Sar]-NH2; thioether 2-7), the EPSA is reported as 173 A^2.

Molecular target: T1, IL-23R (Homo sapiens, UniProt Q5VWK5)
T1 construct: host or cells: HEK293
T1 sequence (Q5VWK5 24-629): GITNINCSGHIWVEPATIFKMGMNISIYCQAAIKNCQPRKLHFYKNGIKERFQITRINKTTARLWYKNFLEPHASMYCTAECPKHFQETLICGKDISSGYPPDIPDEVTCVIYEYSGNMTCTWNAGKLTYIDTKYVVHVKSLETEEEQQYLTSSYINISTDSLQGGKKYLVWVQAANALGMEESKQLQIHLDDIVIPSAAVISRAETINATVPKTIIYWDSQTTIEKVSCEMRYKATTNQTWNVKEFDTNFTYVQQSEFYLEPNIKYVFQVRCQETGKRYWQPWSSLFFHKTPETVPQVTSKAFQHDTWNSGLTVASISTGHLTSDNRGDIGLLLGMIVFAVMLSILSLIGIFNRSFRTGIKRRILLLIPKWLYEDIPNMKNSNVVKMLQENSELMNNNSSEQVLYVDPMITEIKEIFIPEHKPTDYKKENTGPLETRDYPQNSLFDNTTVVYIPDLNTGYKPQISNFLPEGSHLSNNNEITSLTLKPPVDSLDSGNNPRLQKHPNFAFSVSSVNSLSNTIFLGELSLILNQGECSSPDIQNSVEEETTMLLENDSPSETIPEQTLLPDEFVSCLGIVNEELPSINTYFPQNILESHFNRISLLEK
Test: IL23R Reporter Assay
Assay type: cell-based
Settings: HEK293 cells containing IL-23R, IL-12RP1 and STAT-inducible firefly luciferase reporter; 10 ng/mL IL-23 (EC90); 5 h at 37° C.; read-out: IL23R Reporter Assay
CC(=O)N[C@@H]1C(=O)N[C@@H](CC(=O)N(C)C)C(=O)N[C@@H]([C@@H](C)O)C(=O)N[C@@H](Cc2c[nH]c3c(C)cccc23)C(=O)N[C@@H](COCCOCC[N+](C)(C)C)C(=O)N[C@H](C(=O)N[C@@H](Cc2ccc(OCCOCCOCC[N+](C)(C)C)cc2)C(=O)N[C@@H](Cc2ccc3ccccc3c2)C(=O)NC2(C(=O)N[C@@H](CCCCN(C)C(C)=O)C(=O)N[C@@H](CC(N)=O)C(=O)N[C@@H](Cc3cccnc3)C(=O)N(C)CC(=O)N(C)C)CCOCC2)C(C)(C)SSC1(C)C (relative stereo) [compound 267, MeCO-Pen(3)-N(N(Me)2)-T-7MeW-APEG2Ser(S*)-Pen(3)-APEG3F-2Nal-THP-K(NMeAc)-N-3Pya-Sar-CON(Me)2] showed an IC50 of 4.2 nM.
Compound CC(=O)NCCCC[C@H](NC(=O)[C@](C)(CCCCN)NC(=O)[C@H](Cc1ccc2ccccc2c1)NC(=O)[C@H](Cc1ccc(OCCN)cc1)NC(=O)[C@H]1NC(=O)[C@H](Cc2ccc(CNC(C)=O)cc2)NC(=O)[C@H](Cc2c[nH]c3c(C)cccc23)NC(=O)[C@H]([C@@H](C)O)NC(=O)[C@H](CC(N)=O)NC(=O)[C@@H](NC(C)=O)C(C)(C)SSC1(C)C)C(=O)N[C@@H](CC(N)=O)C(=O)N[C@H](CCCCN)C(=O)N(C)[C@H](Cc1ccc(O)cc1)C(N)=O [compound 23, MeCO-Pen(3)-N-T-7MeW-Paf(Ac)-Pen(3)-AEF-2Nal-aMeK-K(Ac)-N-k-NMeDTyr-CONH2] (Ac-[Pen]NT[Trp(7-Me)][Phe(4-CH2NH2)](Ac)[Pen][AEF][2Nal][αMeK]K(Ac)N[dK][dNMeY]-NH2; disulfide 1-6) has an IC50 of 150 nM.
With CC(=O)NCCCC[C@@H]1NC(=O)[C@H](Cc2c[nH]c3c(C)cccc23)NC(=O)[C@H]([C@@H](C)O)NC(=O)[C@H](CC(N)=O)NC(=O)[C@@H](NC(=O)[C@@H](CCCNC(=N)N)NC(C)=O)C(C)(C)SSC(C)(C)[C@@H](C(=O)N[C@@H](Cc2ccc(OCCN)cc2)C(=O)N[C@@H](Cc2ccc3ccccc3c2)C(=O)NC2(C(=O)N[C@@H](CCC(=O)O)C(=O)N[C@@H](CC(N)=O)C(=O)N(C)[C@@H](Cc3cccnc3)C(N)=O)CCOCC2)NC1=O [compound 36] (Ac-[dR][Pen]NT[Trp(7-Me)]K(Ac)[Pen][AEF][2Nal][Thp]EN[NMe3Pal]-NH2; disulfide 2-7 (inferred)) the IC50 was 940 nM.
CC(=O)NCCCC[C@@H]1NC(=O)[C@H](Cc2c[nH]c3c(C)cccc23)NC(=O)[C@H]([C@@H](C)O)NC(=O)[C@H](CC(N)=O)NC(=O)[C@@H](NC(=O)[C@@H](CCCCNC(=O)CCOCCOCCOCCOCCOCCOCCOCCOCCOCCNC(C)=O)NC(C)=O)C(C)(C)SSC(C)(C)[C@@H](C(=O)N[C@@H](Cc2ccc(OCCN)cc2)C(=O)N[C@@H](Cc2ccc3ccccc3c2)C(=O)NC2(C(=O)N[C@@H](CCCCNC(C)=O)C(=O)N[C@@H](CC(N)=O)C(=O)N[C@@H](Cc3cccnc3)C(=O)N(C)CC(N)=O)CCOCC2)NC1=O [compound 44] (Ac-[dK]([PEG9-Ac])[Pen]NT[Trp(7-Me)]K(Ac)[Pen][AEF][2Nal][Thp]K(Ac)N[3Pal][Sar]-NH2; disulfide 2-7 (inferred)) gave an IC50 of 6.8 nM.
CC(=O)NCCCC[C@@H]1NC(=O)[C@H](Cc2c[nH]c3c(C)cccc23)NC(=O)[C@H]([C@@H](C)O)NC(=O)[C@H](CC(N)=O)NC(=O)[C@@H](NC(C)=O)C(C)(C)SSC(C)(C)[C@@H](C(=O)N[C@@H](Cc2ccc(OCCN)cc2)C(=O)N[C@@H](Cc2ccc3ccccc3c2)C(=O)NC2(C(=O)N[C@@H](CCC(=O)O)C(=O)N[C@@H](CC(N)=O)C(=O)N[C@@H](Cc3cccnc3)C(=O)N(C)CC(=O)N(C)C)CCOCC2)NC1=O [compound 276] (Ac-[Pen]NT[Trp(7-Me)]K(Ac)[Pen][AEF][2Nal][Thp]EN[3Pal][Sar]-NMe2; disulfide 1-6 (inferred)) gave an IC50 of 55 nM.
Compound CC(=O)N(C)CCCC[C@@H]1NC(=O)[C@H](Cc2c[nH]c3c(C)cccc23)NC(=O)[C@H]([C@@H](C)O)NC(=O)[C@H](CC(=O)N(C)C)NC(=O)[C@@H](NC(=O)CCOCCOCC[N+](C)(C)C)C(C)(C)SSC(C)(C)[C@@H](C(=O)N[C@@H](Cn2cc(CC[N+](C)(C)C)nn2)C(=O)N[C@@H](Cc2ccc3ccccc3c2)C(=O)NC2(C(=O)N[C@@H](CCCCN(C)C(C)=O)C(=O)N[C@@H](CC(N)=O)C(=O)N[C@@H](Cc3cccnc3)C(=O)N(C)CC(=O)N(C)C)CCOCC2)NC1=O [compound 287, cPEG3aCO-Pen(3)-N(N(Me)2)-T-7MeW-K(NMeAc)-Pen(3)-Tzl(Ch)-2Nal-THP-K(NMeAc)-N-3Pya-Sar-CON(Me)2] has an IC50 of 24 nM.
In the case of CCCCCCCCCCCC(=O)N[C@@H](CCC(=O)NCCOCCOCC(=O)NCCOCCOCC(=O)NCCCC[C@@H](C(N)=O)N(C)C(=O)[C@H](Cc1cccnc1)NC(=O)[C@H](CC(N)=O)NC(=O)[C@H](CCCCN(C)C(C)=O)NC(=O)C1(NC(=O)[C@H](Cc2ccc3ccccc3c2)NC(=O)[C@H](Cc2ccc(OCCCCC[N+](C)(C)C)cc2)NC(=O)[C@H]2NC(=O)[C@H](CCCCNC(C)=O)NC(=O)[C@H](Cc3c[nH]c4c(C)cccc34)NC(=O)[C@H]([C@@H](C)O)NC(=O)[C@H](CC(=O)N(C)C)NC(=O)[C@@H](NC(=O)CCOCCOCC[N+](C)(C)C)C(C)(C)SSC2(C)C)CCOCC1)C(=O)O [compound 313, cPEG3aCO-Pen(3)-N(N(Me)2)-T-7MeW-K(Ac)-Pen(3)-TMAPF-2Nal-THP-K(NMeaC)-N-3Pya-NMeK(PEG2PEG2gEC12)-CONH2] ({Me3N+(CH2)2O(CH2)2O(CH2)2CO}-[Pen]D(NMe2)T[Trp(7-Me)]K(Ac)[Pen]Y(X3)[2Nal][Thp][Lys(Me)](Ac)N[3Pal][NMeK]([AEEA-AEEA-γGlu-Lauroyl])-NH2; disulfide 1-6), the IC50 is reported as 4.2 nM.
For CCCCCCCCCCCC(=O)N[C@@H](CCC(=O)NCCOCCOCC(=O)NCCOCCOCC(=O)NCCCC[C@@H](C(N)=O)N(C)C(=O)[C@H](Cc1cccnc1)NC(=O)[C@H](CC(N)=O)NC(=O)[C@H](CCCCN(C)C(C)=O)NC(=O)C1(NC(=O)[C@H](Cc2ccc3ccccc3c2)NC(=O)[C@H](Cc2ccc(OCCCCC[N+](C)(C)C)cc2)NC(=O)[C@H]2NC(=O)[C@H](CCCCN(C)C(C)=O)NC(=O)[C@H](Cc3c[nH]c4c(C)cccc34)NC(=O)[C@H]([C@@H](C)O)NC(=O)[C@H](CC(=O)N(C)C)NC(=O)[C@@H](NC(=O)CCOCCOCC[N+](C)(C)C)C(C)(C)SSC2(C)C)CCOCC1)C(=O)O [compound 314, cPEG3aCO-Pen(3)-N(N(Me)2)-T-7MeW-K(NMeAC)-Pen(3)-TMAPF-2Nal-THP-K(NMeaC)-N-3Pya-NMeK(PEG2PEG2gEC12)-CONH2] ({Me3N+(CH2)2O(CH2)2O(CH2)2CO}-[Pen]D(NMe2)T[Trp(7-Me)][Lys(Me)](Ac)[Pen]Y(X3)[2Nal][Thp][Lys(Me)](Ac)N[3Pal][NMeK]([AEEA-AEEA-γGlu-Lauroyl])-NH2; disulfide 1-6), the IC50 was 7 nM.

Same assay, conditions: IL23R Reporter Assay (micromolar), HEK293 cells containing IL-23R, IL-12RP1 and STAT-inducible firefly luciferase reporter; 10 ng/mL IL-23 (EC90); 5 h at 37° C.
CC(=O)N(C)CCCC[C@@H]1NC(=O)[C@H](Cc2c[nH]c3c(C)cccc23)NC(=O)[C@H]([C@@H](C)O)NC(=O)[C@H](CC(=O)N(C)C)NC(=O)[C@@H](NC(=O)CCOCCOCC[N+](C)(C)C)C(C)(C)SSC(C)(C)[C@@H](C(=O)N[C@@H](Cc2ccc(OCC(F)(F)C(F)(F)C(F)(F)C[N+](C)(C)C)cc2)C(=O)N[C@@H](Cc2ccc3ccccc3c2)C(=O)NC2(C(=O)N[C@@H](CCCCN(C)C(C)=O)C(=O)N[C@@H](CC(N)=O)C(=O)N[C@@H](Cc3cccnc3)C(=O)N(C)CC(=O)N(C)C)CCOCC2)NC1=O [compound 338, cPEG3aCO-Pen(3)-N(N(Me)2)-T-7MeW-K(NMeAc)-Pen(3)-hFTMAPF-2Nal-THP-K(NMeAc)-N-3Pya-Sar-CON(Me)2] ({Me3N+(CH2)2O(CH2)2O(CH2)2CO}-[Pen]D(NMe2)T[Trp(7-Me)][Lys(Me)](Ac)[Pen]Y(X71)[2Nal][Thp][Lys(Me)](Ac)N[3Pal][Sar]-NMe2; disulfide 1-6) gave an IC50 of 1.6 nM.

From patent US20260022143A1, “Cyclic Peptide Inhibitors of IL-23” (JANSSEN PHARMACEUTICA NV, priority 2022, published 2026)
